Measurements published in PubChem BioAssay (NCI).
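Dose response: 5 concentrations. Exposure: 48 h. Format: 96-well plates. Endpoint: linear interpolation; highest concentration if not reached. Definition used: TGI = concentration required for complete inhibition of growth.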

Tests used:
Assay in all cases: NCI anticancer screen, dose series, 48 h
786-0 renal = system: 786-0 renal
A498 renal = system: A498 renal
A549 NSCLC = system: A549 NSCLC
ACHN renal = system: ACHN renal
BT-549 breast = system: BT-549 breast
CAKI-1 renal = system: CAKI-1 renal
CCRF-CEM leukemia = system: CCRF-CEM leukemia
COLO 205 colon = system: COLO 205 colon
DU-145 prostate = system: DU-145 prostate
EKVX NSCLC = system: EKVX NSCLC
HCC-2998 colon = system: HCC-2998 colon
HCT-116 colon = system: HCT-116 colon
HCT-15 colon = system: HCT-15 colon
HL-60(TB) leukemia = system: HL-60(TB) leukemia
HOP-62 NSCLC = system: HOP-62 NSCLC
HS 578T breast = system: HS 578T breast
HT29 colon = system: HT29 colon
IGROV1 ovarian = system: IGROV1 ovarian
K-562 leukemia = system: K-562 leukemia
KM12 colon = system: KM12 colon
LOX IMVI melanoma = system: LOX IMVI melanoma
M14 melanoma = system: M14 melanoma
MALME-3M melanoma = system: MALME-3M melanoma
MCF7 breast = system: MCF7 breast
MDA-MB-231 breast = system: MDA-MB-231 breast
MDA-MB-435 = system: MDA-MB-435
MDA-N = system: MDA-N
MOLT-4 leukemia = system: MOLT-4 leukemia
NCI-H226 lung = system: NCI-H226 lung
NCI-H23 lung = system: NCI-H23 lung
NCI-H460 lung = system: NCI-H460 lung
NCI-H522 lung = system: NCI-H522 lung
NCI/ADR-RES ovarian = system: NCI/ADR-RES ovarian
OVCAR-3 ovarian = system: OVCAR-3 ovarian
OVCAR-4 ovarian = system: OVCAR-4 ovarian
OVCAR-5 ovarian = system: OVCAR-5 ovarian
OVCAR-8 ovarian = system: OVCAR-8 ovarian
PC-3 prostate = system: PC-3 prostate
RPMI-8226 leukemia = system: RPMI-8226 leukemia
RXF 393 renal = system: RXF 393 renal
SF-268 CNS = system: SF-268 CNS
SF-295 CNS = system: SF-295 CNS
SF-539 CNS = system: SF-539 CNS
SK-MEL-2 melanoma = system: SK-MEL-2 melanoma
SK-MEL-28 melanoma = system: SK-MEL-28 melanoma
SK-MEL-5 melanoma = system: SK-MEL-5 melanoma
SK-OV-3 ovarian = system: SK-OV-3 ovarian
SN12C renal = system: SN12C renal
SNB-19 CNS = system: SNB-19 CNS
SNB-75 CNS = system: SNB-75 CNS
SR leukemia = system: SR leukemia
SW-620 colon = system: SW-620 colon
T-47D breast = system: T-47D breast
U251 CNS = system: U251 CNS
UACC-257 melanoma = system: UACC-257 melanoma
UACC-62 melanoma = system: UACC-62 melanoma
UO-31 renal = system: UO-31 renal

Compound: Cc1cccc2c1C(=O)[C@@](C)([C@]1(C)Nc3cccc(C)c3C1=O)N2
- TGI (786-0 renal): > 100 µM
- TGI (A498 renal): > 100 µM
- TGI (A549 NSCLC): > 100 µM
- TGI (ACHN renal): > 100 µM
- TGI (BT-549 breast): > 100 µM
- TGI (CAKI-1 renal): > 100 µM
- TGI (CCRF-CEM leukemia): > 100 µM
- TGI (COLO 205 colon): > 100 µM
- TGI (DU-145 prostate): > 100 µM
- TGI (EKVX NSCLC): > 100 µM
- TGI (HCC-2998 colon): > 100 µM
- TGI (HCT-116 colon): > 100 µM
- TGI (HCT-15 colon): > 100 µM
- TGI (HL-60(TB) leukemia): 7.9 µM
- TGI (HOP-62 NSCLC): > 100 µM
- TGI (HS 578T breast): > 100 µM
- TGI (HT29 colon): > 100 µM
- TGI (IGROV1 ovarian): > 100 µM
- TGI (K-562 leukemia): > 100 µM
- TGI (KM12 colon): > 100 µM
- TGI (LOX IMVI melanoma): > 100 µM
- TGI (M14 melanoma): > 100 µM
- TGI (MALME-3M melanoma): > 100 µM
- TGI (MCF7 breast): > 100 µM
- TGI (MDA-MB-231 breast): > 100 µM
- TGI (MDA-MB-435): > 100 µM
- TGI (MDA-N): > 100 µM
- TGI (MOLT-4 leukemia): > 100 µM
- TGI (NCI-H226 lung): > 100 µM
- TGI (NCI-H23 lung): > 100 µM
- TGI (NCI-H460 lung): > 100 µM
- TGI (NCI-H522 lung): > 100 µM
- TGI (NCI/ADR-RES ovarian): > 100 µM
- TGI (OVCAR-3 ovarian): > 100 µM
- TGI (OVCAR-4 ovarian): > 100 µM
- TGI (OVCAR-5 ovarian): > 100 µM
- TGI (OVCAR-8 ovarian): > 100 µM
- TGI (PC-3 prostate): > 100 µM
- TGI (RPMI-8226 leukemia): > 100 µM
- TGI (RXF 393 renal): > 100 µM
- TGI (SF-268 CNS): > 100 µM
- TGI (SF-295 CNS): > 100 µM
- TGI (SF-539 CNS): > 100 µM
- TGI (SK-MEL-2 melanoma): > 100 µM
- TGI (SK-MEL-28 melanoma): > 100 µM
- TGI (SK-MEL-5 melanoma): > 100 µM
- TGI (SK-OV-3 ovarian): > 100 µM
- TGI (SN12C renal): > 100 µM
- TGI (SNB-19 CNS): > 100 µM
- TGI (SNB-75 CNS): > 100 µM
- TGI (SR leukemia): > 100 µM
- TGI (SW-620 colon): > 100 µM
- TGI (T-47D breast): > 100 µM
- TGI (U251 CNS): > 100 µM
- TGI (UACC-257 melanoma): > 100 µM
- TGI (UACC-62 melanoma): > 100 µM
- TGI (UO-31 renal): > 100 µM
